This is an account of results in PubChem BioAssay AID1117325 (Cheminformatics & Chemogenomics Research Group (CCRG), …, 2015).

“And” between values parts separate entries of the source, which are not always exact repeats. Equal values may be shown once. The source made the active and inactive calls. No rule for the calls is given here. *1 amine or outer side, *2 acyl side, *3 side chain or, on linkers, in order; H or OH if unused. Where a SMILES comes first, the peptide text is derived from it. Bridges are numbered along the chain shown (N, C = ends). Roman numbers before positions name the chains, in order. [ ]: non-standard residue; d: D form. Actinocin(9to1) = Cc1c2oc3c(C)ccc(C(=O)[*:1])c3nc-2c(C(=O)[*:2])c(N)c1=O; NMeV = CN[C@H](C(=O)O)C(C)C; Sar = CNCC(=O)O

The experiment concerns C2C12 WNT3A-conditioned, nuclear beta-catenin. Description: activation of β-catenin in the nucleus of C2C12, concentration-response, cell-based, Wnt-3a CM-treated, half-maximal inhibitory concentration (AID 1117325).
What is called IC50 is the concentration at which inhibition is half-maximal. As to `CC(C)(C)C(=O)OCOP(=O)(COCCn1cnc2c(N)ncnc21)OCOC(=O)C(C)(C)C`, the IC50 was 704 nM. The result for `COc1cccc2c1C(=O)c1c(O)c3c(c(O)c1C2=O)C[C@@](O)(C(=O)CO)C[C@@H]3O[C@H]1C[C@H](N)[C@H](O[C@@H]2CCCCO2)[C@H](C)O1` reads > 20000 nM (inactive); that for `NC(=NCCCCCCN=C(N)/N=C(\N)Nc1ccc(Cl)cc1)/N=C(\N)Nc1ccc(Cl)cc1`, > 20000 nM (inactive). As to `Clc1cc(Cl)c(OCC#CI)cc1Cl`, the IC50 is > 20000 nM (inactive). Turning to `C#C[C@]1(O)CC[C@H]2[C@@H]3CCc4cc(OC5CCCC5)ccc4[C@H]3CC[C@@]21C`, the IC50 is > 20000 nM (inactive). Take `CCCCCCCCCCCCCC[N+](C)(C)Cc1ccccc1`: the IC50 is > 20000 nM (inactive). For the molecule `CC(=O)[C@]1(O)Cc2c(O)c3c(c(O)c2[C@@H](O[C@H]2C[C@H](N)[C@H](O)[C@H](C)O2)C1)C(=O)c1ccccc1C3=O`, the IC50 was 100 nM. The figure for `C=CC(=O)Nc1cc2c(Nc3ccc(F)c(Cl)c3)ncnc2cc1OCCCN1CCOCC1` is 1000 nM.

With `CC[C@]1(O)C[C@@H]2CN(CCc3c([nH]c4ccccc34)[C@@](C(=O)OC)(c3cc4c(cc3OC)N(C)[C@H]3[C@@](O)(C(=O)OC)[C@H](OC(C)=O)[C@]5(CC)C=CCN6CC[C@]43[C@@H]65)C2)C1`, the IC50 was 3.5 nM and 5.8 nM. The figure for `CCCCCCNC(=O)n1cc(F)c(=O)[nH]c1=O` is 4980 nM; for `Cc1cc(CC(C)CC(C)(C)C)n(O)c(=O)c1` (stereo not given) it is 591 nM. The result for `O=[N+]([O-])c1ccc(O)c2ncccc12` reads > 20000 nM (inactive); that for `CC[C@@]1(O)C(=O)OCc2c1cc1n(c2=O)Cc2c-1nc1ccccc1c2/C=N/OC(C)(C)C`, 1160 nM; that for `CN(Cc1cnc2nc(N)nc(N)c2n1)c1ccc(C(=O)N[C@@H](CCC(=O)O)C(=O)O)cc1`, 26.5 nM. The figure for `Cc1c2oc3c(C)ccc(C(=O)N[C@@H]4C(=O)N[C@H](C(C)C)C(=O)N5CCC[C@H]5C(=O)N(C)CC(=O)N(C)[C@@H](C(C)C)C(=O)O[C@@H]4C)c3nc-2c(C(=O)N[C@@H]2C(=O)N[C@H](C(C)C)C(=O)N3CCC[C@H]3C(=O)N(C)CC(=O)N(C)[C@@H](C(C)C)C(=O)O[C@@H]2C)c(N)c1=O` (I: T[dV]P[Sar][NMeV] / II: T[dV]P[Sar][NMeV]; ester I:1-I:C, II:1-II:C; linker I:N-II:N via Actinocin(9to1)) is 37 nM. As for `COc1ccc2cc1Oc1ccc(cc1)C[C@H]1c3c(cc4c(c3Oc3cc5c(cc3OC)CCN(C)[C@@H]5C2)OCO4)CCN1C`, the IC50 was 5630 nM (inactive). As for `CCCCCCCCCCCC(=O)[O][Sn]([CH2]CCC)([CH2]CCC)[O]C(=O)CCCCCCCCCCC`, the IC50 was > 20000 nM (inactive). As for `C=C(C)[C@H]1Cc2c(ccc3c2O[C@@H]2COc4cc(OC)c(OC)cc4[C@@H]2C3=O)O1`, the IC50 was 2990 nM.

For `CN(C)c1ccc(C(=C2C=CC(=[N+](C)C)C=C2)c2ccccc2)cc1`, the IC50 is > 20000 nM (inactive). Consider `CCCN(CCC)C(=O)C(CCC(=O)OCCCN1CCN(CCOC(=O)Cc2c(C)n(C(=O)c3ccc(Cl)cc3)c3ccc(OC)cc23)CC1)NC(=O)c1ccccc1` (stereo not given), for which the IC50 was > 20000 nM (inactive). As for `COc1cc(NCc2ccc3nc(N)nc(N)c3c2C)cc(OC)c1OC`, the IC50 was 3.3 nM. Regarding `COC(=O)Nc1nc2ccc(Sc3ccccc3)cc2[nH]1`, the IC50 was 4840 nM. As for `Cc1cc(C2CCCCC2)n(O)c(=O)c1`, the IC50 is > 20000 nM (inactive). The result for `COC(=O)Nc1nc2ccc(S(=O)c3ccccc3)cc2[nH]1` (stereo not given) reads 468 nM; that for `COC(=O)Nc1nc2ccc(C(=O)c3cccs3)cc2[nH]1`, 235 nM.
